Data from USRE47689E1, “Compounds for treating spinal muscular atrophy” (PTC Therapeutics, Inc., priority 2011, dated 2019).

What was measured:
Smn protein = Smn protein assay in cultured cells (SMN HTRF); type: cell-based, human; details: 48 hours; for maximum fold (Fold) increase of Smn protein: SMA patient fibroblast cells, 7-point concentration data, fold increase relative to vehicle control (SMN HTRF); for EC1.5x (concentration giving 1.5-fold Smn protein increase): SMA Type 1 patient fibroblast cells (GM03813), 7-point concentration curve, SMN HTRF, concentration producing 1.5 times Smn protein vs DMSO vehicle control, read-out: EC1.5x for Smn protein expression
Outline: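 Smn in SMA fibroblast lysates, measured by anti-SMN HTRF after 48 h compound exposure; EC1.5x from fold change over vehicle.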

[1] = tested on: SMN2 minigene (full length SMN2 minigene mRNA containing SMN2 exon 7); experiment: SMN2 minigene mRNA splicing RT-qPCR assay in cultured cells; type: cell-based, human; details: Homo sapiens, HEK293-H; HEK293H cells stably transfected with SMN2-A minigene; 24 hours; 7-point concentration curve; 1.5-fold relative to vehicle-treated cells; read-out: EC1.5x for production of full length SMN2 mRNA
Outline: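 Full-length SMN2 minigene mRNA (exon 7 included), minigene-specific and not endogenous SMN, quantified by RT-qPCR multiplexed with GAPDH in stably transfected HEK293H cells after 24 h compound exposure at 37° C. Abundance from efficiency-corrected Ct, normalized to GAPDH and vehicle; EC1.5x reported as star bins.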

Compound | maximum fold (Fold) increase of Smn protein (Smn protein) | melting point | EC (1.5-fold) [1] [µM] | EC1.5x (concentration giving 1.5-fold Smn protein increase) (Smn protein) [nM]
C[C@@H]1CN(c2ccc3cc(-c4cn5cccc(Cl)c5n4)c(=O)oc3c2)CCN1C [Compound 296, 3-(8-chloroimidazo[1,2-a]pyridin-2-yl)-7-[(3R)-3,4-dimethylpiperazin-1-yl]-2H-chromen-2-one] | *** (fold increase between >1.35 and ≤1.5) | 199 to 202 °C | 0.1 to 0.3 | 
Cc1cn2cc(-c3cc4ccc(N5CCCNCC5)cc4oc3=O)nc2s1 [Compound 233, 7-(1,4-diazepan-1-yl)-3-(2-methylimidazo[2,1-b][1,3]thiazol-6-yl)-2H-chromen-2-one] | *** (fold increase between >1.35 and ≤1.5) | 188 to 191 °C | 0.1 to 0.3 | 
O=c1oc2cc(N3CCNCC3)ccc2cc1-c1nc2cc(F)ccc2[nH]1 [Compound 395, 3-(5-fluoro-1H-benzimidazol-2-yl)-7-(piperazin-1-yl)-2H-chromen-2-one] | * (maximum fold increase of ≤1.2) | 295 to 300 °C | 0.3 to 1 | 
C[C@H]1CN(c2ccc3cc(-c4cn5cc(F)cnc5n4)c(=O)oc3c2)CCN1 [Compound 492, 3-(6-fluoroimidazo[1,2-a]pyrimidin-2-yl)-7-[(3S)-3-methylpiperazin-1-yl]-2H-chromen-2-one] | * (maximum fold increase of ≤1.2) | 230 to 236 °C | 1 to 3 | 
Cc1cn2cc(-c3cc4ccc(N(C)C5CCN(Cc6ccccc6)C5)cc4oc3=O)nc2c(C)n1 (centres unmarked) [Compound 616, 7-[(1-benzylpyrrolidin-3-yl)(methyl)amino]-3-(6,8-dimethylimidazo[1,2-a]pyrazin-2-yl)-2H-chromen-2-one] | ** (fold increase between >1.2 and ≤1.35) | 150 to 152 °C | 0.1 to 0.3 | 
Cc1ccn2cc(-c3cc4ccc(NCCCN(C)C)cc4oc3=O)nc2c1 [Compound 475, 7-{[3-(dimethylamino)propyl]amino}-3-(7-methylimidazo[1,2-a]pyridin-2-yl)-2H-chromen-2-one] | * (maximum fold increase of ≤1.2) | 165 to 170 °C | 3 to 30 | 
CN1CCC(c2ccc3cc(-c4ccc5nn(C)cc5c4)c(=O)oc3c2)CC1 [Compound 862, 3-(2-methyl-2H-indazol-5-yl)-7-(1-methylpiperidin-4-yl)-2H-chromen-2-one] | ***** (fold increase >1.65) | 215 to 218 °C | < 0.1 | 300 to 1000
COc1cc(OC)cc(-c2cc3ccc(N4CCN[C@@H](C)C4)cc3oc2=O)c1 [Compound 413, 3-(3,5-dimethoxyphenyl)-7-[(3S)-3-methylpiperazin-1-yl]-2H-chromen-2-one] | * (maximum fold increase of ≤1.2) | 149 to 151 °C | 1 to 3 | 
Cc1cn2cc(-c3cc4ccc(N5CC[C@H](N(C)C)C5)cc4oc3=O)cc2c(C)n1 [Compound 697, 7-[(3S)-3-(dimethylamino)pyrrolidin-1-yl]-3-(1,3-dimethylpyrrolo[1,2-a]pyrazin-7-yl)-2H-chromen-2-one] | *** (fold increase between >1.35 and ≤1.5) | 195 to 198 °C | < 0.1 | 300 to 1000
Cc1cc2cc(-c3cc4ccc(N5CCN(C)CC5)cc4oc3=O)oc2c(C)n1 [Compound 763, 3-(5,7-dimethylfuro[2,3-c]pyridin-2-yl)-7-(4-methylpiperazin-1-yl)-2H-chromen-2-one] | **** (fold increase between >1.5 and ≤1.65) | 229 to 232 °C | < 0.1 | < 300
CC(C)N1CCN(c2ccc3cc(-c4cc5ccccn5n4)c(=O)oc3c2)CC1 [Compound 196, 7-[4-(propan-2-yl)piperazin-1-yl]-3-(pyrazolo[1,5-a]pyridin-2-yl)-2H-chromen-2-one] | * (maximum fold increase of ≤1.2) | 243 to 246 °C | 1 to 3 | 
Cc1cccn2cc(-c3cc4ccc(N5CCN(C)CC5)cc4oc3=O)nc12 [Compound 84, 3-(8-methylimidazo[1,2-a]pyridin-2-yl)-7-(4-methylpiperazin-1-yl)-2H-chromen-2-one] | *** (fold increase between >1.35 and ≤1.5) | 224 to 226 °C | 0.3 to 1 | 1000 to 3000
CCc1ccn2cc(-c3cc4ccc(N5CCN(C)CC5)cc4oc3=O)nc2c1 [Compound 288, 3-(7-ethylimidazo[1,2-a]pyridin-2-yl)-7-(4-methylpiperazin-1-yl)-2H-chromen-2-one] | * (maximum fold increase of ≤1.2) | 203 to 211 °C | 1 to 3 | 
C[C@H]1CN(c2ccc3cc(-c4ccc(N(C)C)nc4)c(=O)oc3c2)CCN1 [Compound 548, 3-[6-(dimethylamino)pyridin-3-yl]-7-[(3S)-3-methylpiperazin-1-yl]-2H-chromen-2-one] | * (maximum fold increase of ≤1.2) | 194 to 196 °C | 3 to 30 | 
Cc1cc(F)c2nc(-c3cc4ccc(N5CCN[C@H](C)C5)cc4oc3=O)cn2c1 [Compound 420, 3-(8-fluoro-6-methylimidazo[1,2-a]pyridin-2-yl)-7-[(3R)-3-methylpiperazin-1-yl]-2H-chromen-2-one] | **** (fold increase between >1.5 and ≤1.65) | 246 to 254 °C | < 0.1 | < 300
Cc1cc(F)cn2cc(-c3cc4ccc(N5CCNCC5)cc4oc3=O)nc12 [Compound 328, 3-(6-fluoro-8-methylimidazo[1,2-a]pyridin-2-yl)-7-(piperazin-1-yl)-2H-chromen-2-one] | * (maximum fold increase of ≤1.2) | 223 to 230 °C | 0.3 to 1 | 
CN1CCN(c2ccc3cc(-c4cn5cc(C#N)ccc5n4)c(=O)oc3c2)CC1 [Compound 208, 2-[7-(4-methylpiperazin-1-yl)-2-oxo-2H-chromen-3-yl]imidazo[1,2-a]pyridine-6-carbonitrile] | * (maximum fold increase of ≤1.2) | 291 °C (dec.) | 1 to 3 | 
C[C@@H]1CN(c2ccc3cc(-c4cn5cc(Cl)ccc5n4)c(=O)oc3c2)C[C@H](C)N1 [Compound 105, 3-(6-chloroimidazo[1,2-a]pyridin-2-yl)-7-[(3R,5S)-3,5-dimethylpiperazin-1-yl]-2H-chromen-2-one] | **** (fold increase between >1.5 and ≤1.65) | 220 to 225 °C | 1 to 3 | 300 to 1000
Cc1cc2oc(-c3cc4ccc(N5CCN(C(C)C)CC5)cc4oc3=O)cc2c(C)n1 [Compound 840, 3-(4,6-dimethylfuro[3,2-c]pyridin-2-yl)-7-[4-(propan-2-yl)piperazin-1-yl]-2H-chromen-2-one] | * (maximum fold increase of ≤1.2) | 186 to 191 °C | 0.3 to 1 | 
O=c1oc2cc(CNC(CO)CO)ccc2cc1-c1nc2ccccc2s1 [Compound 99, 3-(1,3-benzothiazol-2-yl)-7-{[(1,3-dihydroxypropan-2-yl)amino]methyl}-2H-chromen-2-one] | * (maximum fold increase of ≤1.2) | 194 to 197 °C | 3 to 30 | 
O=c1oc2cc(N3CCN(CCO)CC3)ccc2cc1-c1cn2cc(Cl)cnc2n1 [Compound 347, 3-(6-chloroimidazo[1,2-a]pyrimidin-2-yl)-7-[4-(2-hydroxyethyl)piperazin-1-yl]-2H-chromen-2-one] | * (maximum fold increase of ≤1.2) | 288 to 296 °C | 3 to 30 | 
Cc1cc(F)c2nc(-c3cc4ccc(N5CCN[C@@H](C)C5)cc4oc3=O)cn2c1 [Cpd 421, 3-(8-fluoro-6-methylimidazo[1,2-a]pyridin-2-yl)-7-[(3S)-3-methylpiperazin-1-yl]-2H-chromen-2-one] | *** (fold increase between >1.35 and ≤1.5) | 250 to 255 °C | < 0.1 | < 300
Cc1cc(F)c2nc(-c3cc4ccc(N5CCN6CCCCC6C5)cc4oc3=O)cn2c1 (centres unmarked) [Compound 612, 3-(8-fluoro-6-methylimidazo[1,2-a]pyridin-2-yl)-7-(octahydro-2H-pyrido[1,2-a]pyrazin-2-yl)-2H-chromen-2-one] | ** (fold increase between >1.2 and ≤1.35) | 268 to 275 °C | 0.3 to 1 | 
CN(CCO)Cc1ccc2cc(-c3nc4c(Cl)cccc4s3)c(=O)oc2c1 [Compound 271, 3-(4-chloro-1,3-benzothiazol-2-yl)-7-{[(2-hydroxyethyl)(methyl)amino]methyl}-2H-chromen-2-one] | **** (fold increase between >1.5 and ≤1.65) | 193 to 196 °C | 1 to 3 | 3000 to 10000
